Laboratory results from patent US20040254224A1, “Medicaments” (priority 2001, published 2004).

Biological target: HM74 (Homo sapiens, UniProt P49019)
Conditions: membranes from HM74-expressing HEK293T cells, co-expressed with Go1α
Experimental: HEK293T cells (HEK293 cells stably expressing the SV40 large T-antigen) were maintained in DMEM containing 10% (v/v) foetal calf serum and 2 mM glutamine. Cells were seeded in 60 mm culture dishes and grown to 60-80% confluency (18-24 h) prior to transfection with pCDNA3 containing the relevant DNA species using Lipofectamine reagent. For transfection, 3 μg of DNA was mixed with 10 μl of Lipofectamine in 0.2 ml of Opti-MEM (Life Technologies Inc.) and was incubated at room temperature for 30 min prior to the addition of 1.6 ml of Opti-MEM. Cells were exposed to the Lipofectamine/DNA mixture for 5 h and 2 ml of 20% (v/v) newborn calf serum in DMEM was then added. Cells were harvested 48-72 h after transfection.
Plasma membrane-containing P2 particulate fractions were prepared from cell pastes frozen at −80° C. after harvest. All procedures were carried out at 4° C. Cell pellets were resuspended in 1 ml of 10 mM Tris-HCl and 0.1 mM EDTA, pH 7.5 (buffer A) and by homogenisation for 20 s with a polytron homogeniser followed by passage (5 times) through a 25-guage needle. Cell lysates were centrifuged at 1,000 g for 10 min in a microcentrige to pellet the nuclei and unbroken cells and P2 particulate fractions were recovered by microcentrifugation at 16,000 g for 30 min. P2 particulate fractions were resuspended in buffer A and stored at −80° C. until required.

HM74, sequence (P49019 whole entry): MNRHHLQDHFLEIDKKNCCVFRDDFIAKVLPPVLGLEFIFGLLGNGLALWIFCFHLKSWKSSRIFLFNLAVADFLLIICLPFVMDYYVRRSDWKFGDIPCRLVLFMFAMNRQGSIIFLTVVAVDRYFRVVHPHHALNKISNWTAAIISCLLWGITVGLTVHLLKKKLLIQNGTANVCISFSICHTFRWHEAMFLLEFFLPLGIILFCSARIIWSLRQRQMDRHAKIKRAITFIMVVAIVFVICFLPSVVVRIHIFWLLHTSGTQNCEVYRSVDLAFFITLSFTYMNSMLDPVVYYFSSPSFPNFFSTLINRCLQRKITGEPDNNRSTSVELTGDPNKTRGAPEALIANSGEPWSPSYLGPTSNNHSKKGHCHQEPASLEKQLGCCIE

## O=C(O)CNC(=O)c1cccnc1 [nicotinuric acid]
  stimulation of [35S]GTPγS binding: not found to alter basal
